Where a name gives a salt, the structure may show the parent alone.
System: MTT (mouse pheochromocytoma)
Test: IC50 of cell viability (ATP content)
Details: (24 or 48 h)
How it was run: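 MTT mouse pheochromocytoma cells in white 1536-well plates were treated for 24 or 48 hrs with library compounds at 8 final concentrations from 0.5 nM to 46 µM. ATP content was measured with CellTiter-Glo luminescence, using positive-control wells as 100% and DMSO wells as 0%. IC50 came from a four-parameter logistic fit.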

SMILES | IC50 of cell viability
Cn1c(NCCN(CCO)CCCc2ccc([N+](=O)[O-])cc2)cc(=O)n(C)c1=O [Nifekalant] | > 46 µM
CCCN1CCC[C@H](c2cccc(O)c2)C1.Cl [R(+)-3PPP hydrochloride] | > 46 µM
CN(C)CCc1c[nH]c2ccc(O)cc12 [Bufotenine] | > 46 µM
C[C@H]/1C[C@H]2[C@H]3CC[C@@H](C(C)=O)[C@]3(C)C[C@@H](O)[C@@H]2[C@]4(C)CCC(=O)\C=C14 [Medrysone] | > 46 µM
CCC(=O)O[C@@H]1CC[C@@H]2[C@@H]3CC\C4=C\C(=O)CC[C@@]4(C)[C@H]3CC[C@@]12C [Testosterone propionate] | > 46 µM
CCCCCCCCCCCCCCCC(=O)OCC(O)C1OC(=O)C(O)=C1O (stereo not given) [Ascorbyl palmitate] | > 46 µM
N[S+](=O)([O-])c1cc2c(cc1C(F)(F)F)N[C@H](Cc1ccccc1)N[S+]2(=O)[O-] [Bendroflumethiazide] | > 46 µM
CN1CCCC(CN2c3ccccc3Sc3ccccc32)C1 (stereo not given) [Pecazina] | > 46 µM
O=C(OCc1ccccc1)c1ccc(O)cc1 [benzyl 4-hydroxybenzoate] | > 46 µM
CNC(=O)C[C@@H](N)C(=O)N[C@@H](C(=O)N[C@@H]1C(=O)N2[C@@H]1SC(C)(C)[C@@H]2C(=O)O)c1ccc(O)cc1 [ASPOXICILLIN] | > 46 µM
O=P([O-])(O)C(Sc1ccc(Cl)cc1)P(=O)([O-])O [TILUDRONATE DISODIUM] | > 46 µM
CCCC1=NC(=C([N]1CC2=CC=C(C=C2)C3=CC=CC=C3C4=N[NH]N=N4)C(=O)OCC/5=C(C)/OC(=O)O5)C(C)(C)O [OLMESARTAN MEDOXOMIL] | > 46 µM
C[C@H](NCCc1ccc(O)cc1)[C@@H](O)c1ccc(O)cc1 [Ritodrine hydrochloride] | > 46 µM
Nc1nc(O)c(-c2ccccc2)o1 [PEMOLINE] | > 46 µM
CC[C@@H]1OC(=O)[C@H](C)[C@H](O[C@H]2C[C@](C)(OC)[C@H](O)[C@H](C)O2)[C@H](C)[C@H](O[C@@H]2O[C@@H](C)C[C@@H](N(C)C)[C@H]2O)[C@](C)(O)C[C@H](C)/C(=N/OCOCCOC)[C@H](C)[C@H](O)[C@]1(C)O [Roxithromycin] | > 46 µM
CC#CC[C@@H](C)[C@@H](O)/C=C/[C@H]1[C@H]2c3cccc(CCCC(=O)[O-])c3O[C@H]2C[C@@H]1O [BERAPROST SODIUM] | > 46 µM
NCCNc1cccc2ccccc12.[Cl-].[Cl-].[H+].[H+] [N-(1-Naphthyl)ethylenediamine 2HCl] | > 46 µM
COP(=O)(OC)C(O)C(Cl)(Cl)Cl (stereo not given) [Trichlorfon] | > 46 µM

SMILES | IC50 of cell viability
Cc1c(Cl)cccc1Nc1ncccc1C(=O)O [CLONIXINUM] | > 46 µM
Oc1ccc(Cl)cc1Sc1cc(Cl)ccc1O [Fenticlor] | > 46 µM
CC(C)C[C@@H](NC(=O)[C@@H](COC(C)(C)C)NC(=O)[C@H](Cc1ccc(O)cc1)NC(=O)[C@@H](CO)NC(=O)[C@@H](Cc1c[nH]c2ccccc12)NC(=O)[C@@H](Cc1c[nH]cn1)NC(=O)[C@@H]1CCC(=O)N1)C(=O)N[C@H](CCCNC(=N)N)C(=O)N1CCC[C@H]1C(=O)NNC(N)=O [GOSERELIN ACETATE] | > 46 µM
Nc1ccc([S+](N)(=O)[O-])cc1 [Sulfanilamide] | > 46 µM
O=c1[nH]c(=O)n([C@H]2C[C@H](O)[C@@H](CO)O2)cc1/C=C/Br [(E)-5-(2-Bromovinyl)-2'-deoxyuridine] | > 46 µM
O=C1CC\C(=N/N1)C2=CC=C(C=C2)[N]3C=CN=C3 [Imazodan] | > 46 µM
CC1CN(c2c(F)c(N)c3c(=O)c(C(=O)O)cn(C4CC4)c3c2F)CC(C)N1 (stereo not given) [SPARFLOXACIN] | > 46 µM
Cc1ccsc1/C=C\C1=NCCCN1C.O=C(O)[C@@H](O)[C@@H](O)C(=O)O [Morantel tartrate] | > 46 µM
CCCCCCCCCCCCCCCCCCCCCCO [DOCOSANOL] | > 46 µM
O=C([O-])c1nc(O)nc(O)n1 [OTERACIL POTASSIUM] | > 46 µM
CCCCCCCCCCC(CO)CCCCCCCC (stereo not given) [OCTYLDODECANOL] | > 46 µM
COc1cccc([C@@]2(O)CCCC[C@@H]2CN(C)C)c1 [Tramadolum] | > 46 µM
OCC(O)CN1CCN(c2ccccc2)CC1 (stereo not given) [DROPROPIZINE] | > 46 µM
CCOc1ccccc1OC(c1ccccc1)C1CNCCO1 (stereo not given) [Reboxetine mesylate] | > 46 µM
C[C@@H](C(=O)O)c1cccc(C(=O)c2ccccc2)c1 [Ketoprofen] | > 46 µM
CN(C)[C@@H]\1[C@@H]2C[C@H]3\C(=C(\O)[C@@]2(O)C(=O)\C(=C1O)C(N)=O)C(=O)C4=C(C=CC=C4O)[C@@]3(C)O [Tetracycline hydrochloride] | > 46 µM
CCO[P](=S)(OCC)OC1=CC=C2\C(=C(Cl)/C(=O)OC2=C1)C [COUMOPHOS] | > 46 µM
